US4992469A, “Method of obtaining an antiplatelet effect” (Eisai Co., Ltd., priority 1984, dated 1991)
Read-outs that look alike come from different tables or passages of the source.

How the values were obtained:
[1] = system: Phospholipase A2; assay: Phospholipase A2 inhibition (myristic acid liberated from myristyllecithin, HPLC); type: biochemical
Procedure: Prior to the determination of the activity of phospholipase A by determining myristic acid liberated from a substrate (myristyllecithin) by said enzyme by high-performance liquid chromatography, the following test compounds were added in amounts as shown in Table 1 to examine the effects thereof.
CoQ10 was employed for the purpose of comparison. [drawing 17]
Each value in Table 1 represents the evaluation of the corresponding compound assuming the value of a physiological saline solution as 100 and indicates the phospholipase A2 inhibition activity thereof.

[2] = system: human platelets; assay: Repression of human platelet agglutination in vitro (PRP; PAF, collagen or ADP as inducer); type: cell-based; details: for inhibition at 100 µM: test compound 100 μM; for inhibition at 200 µM: test compound 200 μM; for inhibition at 20 µM: test compound 20 μM; for inhibition at 50 µM: test compound 50 μM
Procedure: Effects of repressing human platelet agglutination of the compounds of the present invention were examined in vitro. Platelet agglutination test was carried out in the following manner with the use of PAF (platelet activating factor; 1-alkyl-2-acetyl-sn-glycero-3-phosphocholine), collagen and ADP as inducers.
Blood was collected from the venae brachiales of a healthy adult in an amount of nine parts by volume to one part by volume of a 3.8% sodium citrate solution. The blood was centrifuged at 100 ×g for eight min and PRP separated as the supernatant was collected.
To 0.2 ml of the PRP as prepared above, 25 μl portions of test solutions in various concentrations were added and each mixture was incubated at 37° C. for three min. 25 μl of the abovementioned inducer solution was added thereto to induce agglutination. PAF, collagen and ADP were added as inducers to the final concentrations of 100 ng/ml, 1 μg/ml and 5 μM, respectively. Platelet agglutination was determined with an aggregometer (a product of Niko Bioscience Co., Ltd.) by the method of Mustard et al. (cf. Mustard, J.F., Hegaldt, B., Rosewell, H.C., MacMillan, R.C., J. Lab. Clin. Med., 64, 548-559 (1964)). The repressing effect of each test compound was evaluated as the repression ratio with the use of PRP containing vehicle as control.
(3) The following compounds were tested. Compounds A to D are as defined in Experimental Example 1. [drawing 18]
Each figure in Table 2 represents the repression ratio (%) of the corresponding compound.

[3] = inducer ADP 5 μM, read-out: repression ratio of platelet agglutination, ADP
[4] = inducer PAF 100 ng/ml, read-out: repression ratio of platelet agglutination, PAF
[5] = inducer collagen 1 μg/ml, read-out: repression ratio of platelet agglutination, Collagen

SMILES	Phospholipase A activity (physiological saline = 100) ([1]; final concentration 43 μM) [%]	inhibition at 100 µM [2, 3] [%]	inhibition at 200 µM [2, 3] [%]	inhibition at 20 µM [2, 4] [%]	inhibition at 100 µM [2, 4] [%]	inhibition at 200 µM [2, 4] [%]	inhibition at 20 µM [2, 5] [%]	inhibition at 100 µM [2, 5] [%]	Phospholipase A activity (physiological saline = 100) ([1]; final concentration 4 μM) [%]	inhibition at 20 µM [2, 3] [%]	inhibition at 50 µM [2, 3] [%]	inhibition at 50 µM [2, 4] [%]
COC1=C(OC)C(=O)C(C/C=C(\C)CC/C=C(\C)CC/C=C(\C)CC/C=C(\C)CC/C=C(\C)CC/C=C(\C)CC/C=C(\C)CC/C=C(\C)CC/C=C(\C)CCC=C(C)C)=C(C)C1=O [CoQ10, Ubidecarenone, reference compound]	56	8.7	11.3	8	16.2	19	6.5	18.7				
COC1=C(OC)C(=O)C(C/C=C(\C)CC/C=C(\C)CC/C=C(\C)CC/C=C(\C)C(=O)O)=C(C)C1=O [Compound A]		22.1	23.1	27.8	42.6	52.9	62.4	86.6	66	12.4	2.1	36
COc1c(O)c(C)c(C/C=C(\C)CC/C=C(\C)CC/C=C(\C)CC/C=C(\C)C(=O)O)c(OC)c1OC [Compound B]		21.5	24.2	21.6	38.4	51.6	21.4	69.6	55	12.9	24.8	36.8
COC1=C(OC)C(=O)C(C/C=C(\C)CC/C=C(\C)CC/C=C(\C)C(=O)O)=C(C)C1=O [Compound C]			18.3	3.5	12.2	47.3	3.2	17.2	25			3.4
COc1c(O)c(C)c(C/C=C(\C)CC/C=C(\C)CC/C=C(\C)C(=O)O)c(OC)c1OC [Compound D]		13.5	21.3	4.5	26	51.5	2.8	39.3	24		9	23.8
COc1c(O)c(C)c(C/C=C(\C)CC/C=C(\C)C(=O)O)c(OC)c1OC [Compound E]		10.7	23	3.03	32.5	45.4	45.4	75.8				28.1
COc1c(O)c(C)c(C/C=C(\C)CC/C=C(\C)CC/C=C(\C)CC/C=C(\C)CC/C=C(\C)C(=O)O)c(OC)c1OC [Compound F]		6.7	26.3		9.3	49	5	15.8				5.9
COc1c(O)c(C)c(C/C=C(\C)CC/C=C(\C)CC/C=C(\C)CC/C=C(\C)CC/C=C(\C)CC/C=C(\C)C(=O)O)c(OC)c1OC [Compound G]		14	23.1		12.8	59.8		30.2				8.1
COC1=C(OC)C(=O)C(C/C=C(\C)CC/C=C(\C)C(=O)O)=C(C)C1=O [Compound H]		8.8	18.2	8.8	37.8	47.3	38.1	84.3				28.2
COC1=C(OC)C(=O)C(C/C=C(\C)CC/C=C(\C)CC/C=C(\C)CC/C=C(\C)CC/C=C(\C)C(=O)O)=C(C)C1=O [Compound I]		3.9	22	2.8	10.8	53.3		24.1				3.9
COC1=C(OC)C(=O)C(C/C=C(\C)CC/C=C(\C)CC/C=C(\C)CC/C=C(\C)CC/C=C(\C)CC/C=C(\C)C(=O)O)=C(C)C1=O [Compound J]		27.1	30.1	6	24.9	65.3		22			16.5	2.7
